# Results: ChEMBL document CHEMBL4680132, “Tuning isoform selectivity and bortezomib sensitivity with a new class of alkenyl indene PDI inhibitor” (Eur J Med Chem, 2020)
# Active and inactive are the calls of the source. The rule behind the calls is not given here.
# Legend:
# [1] = test system: MM1.S; test: Inhibition of PDI in human bortezomib-resistant MM1.S cells assessed as induction of ATF4 levels at 0.5 uM incubated for 8 hrs by Western blot analysis
# [2] = test system: MM1.S; test: Inhibition of PDI in human bortezomib-resistant MM1.S cells assessed as accumulation of poly-ubiquinated protein at 0.5 uM incubated for 8 hrs by Western blot analysis
# [3] = test system: MM1.S; test: Inhibition of PDI in human bortezomib-resistant MM1.S cells assessed as induction of CHOP levels at 0.5 uM incubated for 8 hrs by Western blot analysis
# [4] = test system: MM1.S; test: Inhibition of PDI in human bortezomib-resistant MM1.S cells assessed as induction of Nrf2 levels at 0.5 uM incubated for 8 hrs by Western blot analysis
# [5] = target: T1, Protein disulfide-isomerase A6 (Homo sapiens, UniProt Q15084); test: Inhibition of PDIA6 (unknown origin) expressed in Escherichia coli BL21 (DE3) incubated for 1 hr and measured by insulin reduction assay
# T1 sequence (Q15084 whole entry): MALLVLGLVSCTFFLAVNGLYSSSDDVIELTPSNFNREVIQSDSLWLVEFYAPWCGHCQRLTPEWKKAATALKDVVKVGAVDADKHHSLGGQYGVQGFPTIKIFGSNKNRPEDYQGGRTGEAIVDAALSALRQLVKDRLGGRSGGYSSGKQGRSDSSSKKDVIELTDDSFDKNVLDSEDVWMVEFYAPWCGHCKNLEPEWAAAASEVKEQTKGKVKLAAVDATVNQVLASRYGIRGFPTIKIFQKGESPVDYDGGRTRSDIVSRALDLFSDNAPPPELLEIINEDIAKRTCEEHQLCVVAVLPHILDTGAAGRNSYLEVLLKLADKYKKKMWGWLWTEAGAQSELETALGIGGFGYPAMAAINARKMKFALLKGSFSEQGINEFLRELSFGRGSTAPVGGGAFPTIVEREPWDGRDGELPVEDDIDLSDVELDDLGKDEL
# [6] = target: T2, Protein disulfide-isomerase A3 (Homo sapiens, UniProt P30101); test: Inhibition of PDIA3 (unknown origin) expressed in Escherichia coli BL21 (DE3) incubated for 1 hr and measured by insulin reduction assay
# T2 sequence (P30101 whole entry): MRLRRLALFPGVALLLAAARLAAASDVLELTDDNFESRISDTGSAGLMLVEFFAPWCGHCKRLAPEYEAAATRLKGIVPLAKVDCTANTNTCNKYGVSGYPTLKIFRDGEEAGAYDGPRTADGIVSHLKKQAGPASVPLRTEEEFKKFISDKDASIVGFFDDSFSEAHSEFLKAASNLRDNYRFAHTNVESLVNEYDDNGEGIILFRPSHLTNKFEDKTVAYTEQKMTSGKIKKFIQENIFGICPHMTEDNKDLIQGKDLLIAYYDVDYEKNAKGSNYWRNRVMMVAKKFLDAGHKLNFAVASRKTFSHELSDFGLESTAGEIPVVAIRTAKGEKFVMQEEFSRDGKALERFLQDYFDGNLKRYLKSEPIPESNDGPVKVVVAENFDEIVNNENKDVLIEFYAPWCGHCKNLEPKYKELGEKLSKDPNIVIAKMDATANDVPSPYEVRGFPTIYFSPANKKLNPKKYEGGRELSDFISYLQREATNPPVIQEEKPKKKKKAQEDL
# [7] = target: Thioredoxin domain-containing protein 5 (Homo sapiens, UniProt Q8NBS9); test: Inhibition of TXNDC5 (unknown origin)
# Sequence of Thioredoxin domain-containing protein 5 (Q8NBS9 whole entry, the tested form may be a part): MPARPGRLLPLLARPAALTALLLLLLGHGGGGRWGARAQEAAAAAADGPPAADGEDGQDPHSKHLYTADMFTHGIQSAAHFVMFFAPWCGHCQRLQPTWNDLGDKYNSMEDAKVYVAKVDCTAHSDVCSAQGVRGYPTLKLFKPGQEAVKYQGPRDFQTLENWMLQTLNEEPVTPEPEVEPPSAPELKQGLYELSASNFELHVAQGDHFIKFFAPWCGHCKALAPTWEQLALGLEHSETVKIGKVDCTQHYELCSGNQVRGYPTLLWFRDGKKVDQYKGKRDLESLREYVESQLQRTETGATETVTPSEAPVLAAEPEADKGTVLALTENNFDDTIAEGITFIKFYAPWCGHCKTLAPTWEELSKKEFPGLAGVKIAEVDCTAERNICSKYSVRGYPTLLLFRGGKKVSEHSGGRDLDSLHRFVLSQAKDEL
# [8] = target: T3, Protein disulfide-isomerase A4 (Homo sapiens, UniProt P13667); test: Inhibition of PDIA4 (unknown origin) expressed in Escherichia coli BL21 (DE3) incubated for 1 hr and measured by insulin reduction assay
# T3 sequence (P13667 whole entry): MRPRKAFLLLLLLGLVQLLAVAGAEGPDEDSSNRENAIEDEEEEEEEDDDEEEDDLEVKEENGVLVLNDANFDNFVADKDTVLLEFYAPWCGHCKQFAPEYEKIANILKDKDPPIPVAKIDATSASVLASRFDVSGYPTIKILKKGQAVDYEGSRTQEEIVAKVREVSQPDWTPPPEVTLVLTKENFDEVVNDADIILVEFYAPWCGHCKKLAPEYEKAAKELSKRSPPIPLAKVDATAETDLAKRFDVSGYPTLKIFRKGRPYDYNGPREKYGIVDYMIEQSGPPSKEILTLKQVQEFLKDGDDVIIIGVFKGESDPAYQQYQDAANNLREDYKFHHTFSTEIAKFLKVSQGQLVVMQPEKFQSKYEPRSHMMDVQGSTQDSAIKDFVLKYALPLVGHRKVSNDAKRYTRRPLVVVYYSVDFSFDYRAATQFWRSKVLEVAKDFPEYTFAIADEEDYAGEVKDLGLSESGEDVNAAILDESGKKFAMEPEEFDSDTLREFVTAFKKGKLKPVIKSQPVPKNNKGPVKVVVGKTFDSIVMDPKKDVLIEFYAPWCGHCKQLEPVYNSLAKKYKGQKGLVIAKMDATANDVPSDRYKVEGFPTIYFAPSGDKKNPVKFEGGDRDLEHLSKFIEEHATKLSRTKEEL
# [9] = Inhibition of thioredoxin (unknown origin); set-up: species or system Homo sapiens
# [10] = Inhibition of PDI (unknown origin) expressed in Escherichia coli BL21 (DE3) incubated for 1 hr and measured by insulin reduction assay; set-up: species or system Homo sapiens
# [11] = target: Cytochrome P450 3A4 (Homo sapiens, UniProt P08684); test: Inhibition of CYP3A4 in human liver microsomes using midazolam as substrate incubated for 30 mins by LC-MS/MS analysis; format: ADME; details: 0.5 h
# Sequence of Cytochrome P450 3A4 (P08684 whole entry): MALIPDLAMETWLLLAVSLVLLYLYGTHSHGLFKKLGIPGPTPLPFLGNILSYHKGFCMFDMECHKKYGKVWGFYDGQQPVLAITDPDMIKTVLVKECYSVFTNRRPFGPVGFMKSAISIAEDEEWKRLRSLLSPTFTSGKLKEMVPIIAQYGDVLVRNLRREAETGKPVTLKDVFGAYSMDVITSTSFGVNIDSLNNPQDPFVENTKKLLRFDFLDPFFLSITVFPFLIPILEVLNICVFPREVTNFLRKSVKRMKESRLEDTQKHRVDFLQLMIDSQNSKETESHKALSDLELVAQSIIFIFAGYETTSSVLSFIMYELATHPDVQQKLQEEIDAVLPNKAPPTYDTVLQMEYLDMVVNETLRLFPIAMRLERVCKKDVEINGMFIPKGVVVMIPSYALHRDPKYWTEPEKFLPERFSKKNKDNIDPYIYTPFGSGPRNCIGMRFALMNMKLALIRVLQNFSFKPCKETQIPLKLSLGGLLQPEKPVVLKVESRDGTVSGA
Structure (SMILES),ATF4 induction (activity call) [1],poly-ubiquitinated protein accumulation (qualitative) [2],CHOP induction (activity call) [3],Nrf2 induction (activity call) [4],IC50 [5] [µM],IC50 [6] [µM],IC50 [7] [µM],IC50 [8] [µM],IC50 [9],IC50 [10] [µM],inhibition (INH) [11],IC50 ([9]; read-out: IC50) [µM]
CCCCCCCC/C=C1/C=C(C(F)(F)F)c2cc(O)c(O)cc21,Active,Active,Active,Active,–,–,–,–,–,–,–,–
FC(F)(F)C1=C/C(=C\CC2CCCCC2)c2cc3c(cc21)OCO3,Active,Active,Active,Active,–,–,–,–,–,–,–,–
CCCCCCCC/C=C1/C=C(C(F)(F)F)c2cc(OC)c(OC)cc21,Active,Active,Active,Active,16.3,20.8,> 100,61.6,Not Active,1.12,–,–
CCCCCCCC/C=C1\C=C(C(F)(F)F)c2cc(OC)c(OC)cc21,Active,Active,Active,Active,–,–,–,–,–,–,–,–
CCCCCC/C=C1\C=C(C(F)(F)F)c2cc3c(cc21)OCO3,Active,Active,Active,Active,12,16.5,> 100,> 100,Not Active,0.79,Not Active,–
CCCCCC/C=C1\C=C(C(=O)NC)c2cc(O)c(O)cc21,Active,Active,Active,Active,–,–,–,–,–,–,–,–
CCCCCC/C=C1\C=C(C(F)(F)F)c2cc(OC)ccc21,Active,Active,Active,Active,–,–,–,–,–,–,–,–
COc1cc2c(cc1OC)/C(=C/CCCCCCOCc1ccccc1)C=C2C(F)(F)F,Active,Active,Active,Active,–,–,–,–,–,–,–,–
CCCCCC/C=C1\C=C(C(F)(F)F)c2cc(O)c(O)cc21,Active,Active,Active,Active,–,–,–,–,–,–,–,–
COc1cc2c(cc1OC)/C(=C\CCCCCCOCc1ccccc1)C=C2C(F)(F)F,Active,Active,Active,Active,–,–,–,–,–,–,–,–
FC(F)(F)C1=C/C(=C\CC2CCCC2)c2cc3c(cc21)OCO3,Active,Active,Active,Active,–,–,–,–,–,–,–,–
FC(F)(F)C1=C/C(=C\CCCCCCOCc2ccccc2)c2cc3c(cc21)OCO3,Active,Active,Active,Active,–,–,–,–,–,–,–,–
CCCCCC/C=C1\C=C(C(=O)OCC)c2cc(O)c(O)cc21,Active,Active,Active,Active,–,–,–,–,–,–,–,–
CCCCCC/C=C1\C=C(C(=O)O)c2cc(O)c(O)cc21,Active,Active,Active,Active,–,–,–,–,–,–,–,–
CCCCCCCC/C=C1\C=C(C(F)(F)F)c2cc(O)c(O)cc21,Active,Active,Active,Active,5.7,4.8,12.1,33.1,–,0.6,Not Active,30.3
FC(F)(F)C1=C/C(=C/CCCCCCOCc2ccccc2)c2cc3c(cc21)OCO3,Active,Active,Active,Active,–,–,–,–,–,–,–,–
CCCCCC/C=C1\C=C(C(F)(F)F)c2cc3c(cc21)OCCO3,Active,Active,Active,Active,–,–,–,–,–,–,–,–
CCCCCC/C=C1/C=C(C(F)(F)F)c2cc(O)c(O)cc21,Active,Active,Active,Active,–,–,–,–,–,–,–,–
